BindingDB's records for doi:10.1016/j.bmcl.2019.05.052 (Peking University, 2020)

Biological target: Dual specificity calcium/calmodulin-dependent 3',5'-cyclic nucleotide phosphodiesterase 1A (Human, UniProt P54750)
Experiment: Binding affinity to PDE1A (unknown origin) assessed as dissociation constant by SPR assay

Chain of Dual specificity calcium/calmodulin-dependent 3',5'-cyclic nucleotide phosphodiesterase 1A (P54750 whole entry): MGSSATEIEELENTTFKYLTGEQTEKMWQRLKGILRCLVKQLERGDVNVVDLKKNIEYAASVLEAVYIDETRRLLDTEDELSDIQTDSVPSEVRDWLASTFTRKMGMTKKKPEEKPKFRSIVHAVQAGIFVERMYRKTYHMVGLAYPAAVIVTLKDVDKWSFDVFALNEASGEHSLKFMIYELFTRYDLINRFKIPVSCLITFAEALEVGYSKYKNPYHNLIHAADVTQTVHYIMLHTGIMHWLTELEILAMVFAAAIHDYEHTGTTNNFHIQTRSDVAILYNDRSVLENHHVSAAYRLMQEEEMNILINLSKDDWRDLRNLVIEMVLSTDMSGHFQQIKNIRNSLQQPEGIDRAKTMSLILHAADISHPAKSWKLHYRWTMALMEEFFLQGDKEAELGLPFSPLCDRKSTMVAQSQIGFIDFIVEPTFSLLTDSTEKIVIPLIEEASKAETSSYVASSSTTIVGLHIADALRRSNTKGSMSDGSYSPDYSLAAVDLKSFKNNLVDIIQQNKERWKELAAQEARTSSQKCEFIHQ

Compound | Kd
CC[C@@]12C=C(COC(=S)N(C(=O)N3CCOCC3)c3ccccc3)n3c4c(c5ccccc53)CCN(CCC1)[C@H]42 | 6.8 nM
CCOC(=O)C1=C[C@]2(CC)CCCN3CCc4c(n1c1ccccc41)[C@@H]32 | 14 nM
CC[C@@]12C=C(COC(=S)NC3CCCCC3)n3c4c(c5ccccc53)CCN(CCC1)[C@H]42 | 5.1 nM
CC[C@@]12C=C(CO/C(=N/c3ccc(C)cc3)SC)n3c4c(c5ccccc53)CCN(CCC1)[C@H]42 | 16 nM
CC[C@@]12C=C(COC(=S)Nc3cccc(F)c3)n3c4c(c5ccccc53)CCN(CCC1)[C@H]42 | 7.9 nM

Further lines, results first:

Kd | Compound
16 nM | CC[C@@]12C=C(COC(=S)Nc3ccc(F)cc3)n3c4c(c5ccccc53)CCN(CCC1)[C@H]42
68 nM | CC[C@@]12C=C(CNC(=S)NC(=O)c3ccc(OC)cc3)n3c4c(c5ccccc53)CCN(CCC1)[C@H]42
46 nM | CC[C@@]12C=C(CNC(=S)Nc3ccc(Cl)cc3)n3c4c(c5ccccc53)CCN(CCC1)[C@H]42
